Reference: patent US20230085307A1, “PYRIDAZINONE COMPOUND AND HERBICIDE” (NISSAN CHEMICAL CORPORATION, priority 2019, published 2023)

What was measured:
[1] = system: barnyard grass; assay: Test Example 3: herbicidal effect by foliage application, Wagner pot (Table 18, symbol H); assay type: in vivo, barnyard grass (Echinochloa crus-galli)
Procedure, shortened: (§1)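 Plants were sown in alluvial soil held under 0.1–0.5 cm standing water and grown 14 days in a greenhouse at 25–30 °C. An emulsifiable formulation, water-diluted to the set dose, was then sprayed onto the foliage, and effects were scored three weeks later using previously defined criteria.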

[2] = system: Chinese sprangletop; assay: Test Example 3: herbicidal effect by foliage application, Wagner pot (Table 18, symbol D); assay type: in vivo, chinese sprangletop (Leptochloa chinensis)
Procedure, shortened: as §1

[3] = system: rice flat sedge; assay: Test Example 3: herbicidal effect by foliage application, Wagner pot (Table 18, symbol E); assay type: in vivo, rice flat sedge (Cyperus iria)
Procedure, shortened: as §1

[4] = system: southern crabgrass; assay: Test Example 4: herbicidal effect by soil treatment (Table 19, symbol F); assay type: in vivo, southern crabgrass (Digitaria ciliaris)
Procedure, shortened: (§2)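 Applied as a water-diluted emulsion, the compound was sprayed onto soil covering newly sown seeds. Evaluation came three weeks after application, in a greenhouse held at 25° C. to 30° C.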

[5] = system: green foxtail; assay: Test Example 4: herbicidal effect by soil treatment (Table 19, symbol G); assay type: in vivo, green foxtail (Setaria viridis)
Procedure, shortened: as §2

[6] = system: barnyard grass; assay: Test Example 4: herbicidal effect by soil treatment (Table 19, symbol H); assay type: in vivo, barnyard grass (Echinochloa crus-galli)
Procedure, shortened: as §2

[7] = system: wild oat; assay: Test Example 4: herbicidal effect by soil treatment (Table 19, symbol I); assay type: in vivo, wild oat (Avena fatua)
Procedure, shortened: as §2

[8] = system: blackgrass; assay: Test Example 4: herbicidal effect by soil treatment (Table 19, symbol J); assay type: in vivo, blackgrass (Alopecurus myosuroides)
Procedure, shortened: as §2

[9] = system: Italian ryegrass; assay: Test Example 4: herbicidal effect by soil treatment (Table 19, symbol K); assay type: in vivo, Italian ryegrass (Lolium multiflorum)
Procedure, shortened: as §2

[10] = system: windgrass; assay: Test Example 4: herbicidal effect by soil treatment (Table 19, symbol L); assay type: in vivo, windgrass (Apera spica-venti)
Procedure, shortened: as §2

[11] = system: velvetleaf; assay: Test Example 4: herbicidal effect by soil treatment (Table 19, symbol M); assay type: in vivo, velvetleaf (Abutilon theophrasti)
Procedure, shortened: as §2

[12] = system: redroot pigweed; assay: Test Example 4: herbicidal effect by soil treatment (Table 19, symbol N); assay type: in vivo, redroot pigweed (Amaranthus retroflexus)
Procedure, shortened: as §2

[13] = system: lambsquarters; assay: Test Example 4: herbicidal effect by soil treatment (Table 19, symbol O); assay type: in vivo, lambsquarters (Chenopodium album)
Procedure, shortened: as §2

[14] = system: chickweed; assay: Test Example 4: herbicidal effect by soil treatment (Table 19, symbol P); assay type: in vivo, common chickweed (Stellaria media)
Procedure, shortened: as §2

[15] = system: false cleavers; assay: Test Example 4: herbicidal effect by soil treatment (Table 19, symbol Q); assay type: in vivo, false cleavers (Galium spurium)
Procedure, shortened: as §2

[16] = system: persian speedwell; assay: Test Example 4: herbicidal effect by soil treatment (Table 19, symbol R); assay type: in vivo, Persian speedwell (Veronica persica)
Procedure, shortened: as §2

[17] = system: southern crabgrass; assay: Test Example 5: herbicidal effect by foliage application, plastic box (Table 20, symbol F); assay type: in vivo, southern crabgrass (Digitaria ciliaris); details: foliage application, three weeks after application
Procedure, shortened: (§3)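 Sow seeds spot-wise in sterilized diluvial soil; cover with ~1.5 cm soil. Grow 14 days in greenhouse, 25° C. to 30° C. Spray foliage with emulsion diluted to predetermined amount. Rate effect after 3 weeks.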

[18] = system: green foxtail; assay: Test Example 5: herbicidal effect by foliage application, plastic box (Table 20, symbol G); assay type: in vivo, green foxtail (Setaria viridis); details: foliage application, three weeks after application
Procedure, shortened: as §3

[19] = system: barnyard grass; assay: Test Example 5: herbicidal effect by foliage application, plastic box (Table 20, symbol H); assay type: in vivo, barnyard grass (Echinochloa crus-galli); details: foliage application, three weeks after application
Procedure, shortened: as §3

[20] = system: wild oat; assay: Test Example 5: herbicidal effect by foliage application, plastic box (Table 20, symbol I); assay type: in vivo, wild oat (Avena fatua); details: foliage application, three weeks after application
Procedure, shortened: as §3

[21] = system: blackgrass; assay: Test Example 5: herbicidal effect by foliage application, plastic box (Table 20, symbol J); assay type: in vivo, blackgrass (Alopecurus myosuroides); details: foliage application, three weeks after application
Procedure, shortened: as §3

[22] = system: Italian ryegrass; assay: Test Example 5: herbicidal effect by foliage application, plastic box (Table 20, symbol K); assay type: in vivo, Italian ryegrass (Lolium multiflorum); details: foliage application, three weeks after application
Procedure, shortened: as §3

[23] = system: windgrass; assay: Test Example 5: herbicidal effect by foliage application, plastic box (Table 20, symbol L); assay type: in vivo, windgrass (Apera spica-venti); details: foliage application, three weeks after application
Procedure, shortened: as §3

[24] = system: velvetleaf; assay: Test Example 5: herbicidal effect by foliage application, plastic box (Table 20, symbol M); assay type: in vivo, velvetleaf (Abutilon theophrasti); details: foliage application, three weeks after application
Procedure, shortened: as §3

[25] = system: redroot pigweed; assay: Test Example 5: herbicidal effect by foliage application, plastic box (Table 20, symbol N); assay type: in vivo, redroot pigweed (Amaranthus retroflexus); details: foliage application, three weeks after application
Procedure, shortened: as §3

[26] = system: lambsquarters; assay: Test Example 5: herbicidal effect by foliage application, plastic box (Table 20, symbol O); assay type: in vivo, lambsquarters (Chenopodium album); details: foliage application, three weeks after application
Procedure, shortened: as §3

[27] = system: chickweed; assay: Test Example 5: herbicidal effect by foliage application, plastic box (Table 20, symbol P); assay type: in vivo, common chickweed (Stellaria media); details: foliage application, three weeks after application
Procedure, shortened: as §3

[28] = system: false cleavers; assay: Test Example 5: herbicidal effect by foliage application, plastic box (Table 20, symbol Q); assay type: in vivo, false cleavers (Galium spurium); details: foliage application, three weeks after application
Procedure, shortened: as §3

[29] = system: persian speedwell; assay: Test Example 5: herbicidal effect by foliage application, plastic box (Table 20, symbol R); assay type: in vivo, Persian speedwell (Veronica persica); details: foliage application, three weeks after application
Procedure, shortened: as §3

[30] = amount of applied herbicide 144 g/ha
[31] = amount of applied herbicide 320 g/ha

SMILES: Cc1nn(C)c(=O)c(-c2c(-c3ccc(C(F)(F)F)nc3)sc3ccccc23)c1O [1-078]
- herbicidal effect on H (barnyard grass), rating 0-5 ([1]; 144 g/ha): 1 (Herbicidal rate of 5% or more and less than 20%)
- herbicidal effect on D (Chinese sprangletop), rating 0-5 ([2]; 144 g/ha): 0 (Herbicidal rate of 5% or less (almost no effect))
- herbicidal effect on E (rice flat sedge), rating 0-5 ([3]; 144 g/ha): 3 (Herbicidal rate of 40% or more and less than 70%)
- herbicidal effect rating, F: southern crabgrass [4, 30]: 0 (Herbicidal rate of 5% or less (almost no effect))
- herbicidal effect rating, G: green foxtail [5, 30]: 0 (Herbicidal rate of 5% or less (almost no effect))
- herbicidal effect rating, H: barnyard grass [6, 30]: 2 (Herbicidal rate of 20% or more and less than 40%)
- herbicidal effect rating, I: wild oat [7, 30]: 0 (Herbicidal rate of 5% or less (almost no effect))
- herbicidal effect rating, J: blackgrass [8, 30]: 0 (Herbicidal rate of 5% or less (almost no effect))
- herbicidal effect rating, K: Italian ryegrass [9, 30]: 0 (Herbicidal rate of 5% or less (almost no effect))
- herbicidal effect rating, L: windgrass [10, 30]: 0 (Herbicidal rate of 5% or less (almost no effect))
- herbicidal effect rating, M: velvetleaf [11, 30]: 0 (Herbicidal rate of 5% or less (almost no effect))
- herbicidal effect rating, N: redroot pigweed [12, 30]: 0 (Herbicidal rate of 5% or less (almost no effect))
- herbicidal effect rating, O: lambsquarters [13, 30]: 3 (Herbicidal rate of 40% or more and less than 70%)
- herbicidal effect rating, P: chickweed [14, 30]: 0 (Herbicidal rate of 5% or less (almost no effect))
- herbicidal effect rating, Q: false cleavers [15, 30]: 0 (Herbicidal rate of 5% or less (almost no effect))
- herbicidal effect rating, R: persian speedwell [16, 30]: 2 (Herbicidal rate of 20% or more and less than 40%)
- herbicidal effect grade, F: southern crabgrass ([17]; 144 g/ha): 0 (Herbicidal rate of 5% or less (almost no effect))
- herbicidal effect grade, G: green foxtail ([18]; 144 g/ha): 0 (Herbicidal rate of 5% or less (almost no effect))
- herbicidal effect grade, H: barnyard grass ([19]; 144 g/ha): 0 (Herbicidal rate of 5% or less (almost no effect))
- herbicidal effect grade, I: wild oat ([20]; 144 g/ha): 0 (Herbicidal rate of 5% or less (almost no effect))
- herbicidal effect grade, J: blackgrass ([21]; 144 g/ha): 0 (Herbicidal rate of 5% or less (almost no effect))
- herbicidal effect grade, K: Italian ryegrass ([22]; 144 g/ha): 0 (Herbicidal rate of 5% or less (almost no effect))
- herbicidal effect grade, L: windgrass ([23]; 144 g/ha): 0 (Herbicidal rate of 5% or less (almost no effect))
- herbicidal effect grade, M: velvetleaf ([24]; 144 g/ha): 5 (Herbicidal rate of 90% or more (almost completely withered))
- herbicidal effect grade, N: redroot pigweed ([25]; 144 g/ha): 0 (Herbicidal rate of 5% or less (almost no effect))
- herbicidal effect grade, O: lambsquarters ([26]; 144 g/ha): 2 (Herbicidal rate of 20% or more and less than 40%)
- herbicidal effect grade, P: chickweed ([27]; 144 g/ha): 5 (Herbicidal rate of 90% or more (almost completely withered))
- herbicidal effect grade, Q: false cleavers ([28]; 144 g/ha): 1 (Herbicidal rate of 5% or more and less than 20%)
- herbicidal effect grade, R: persian speedwell ([29]; 144 g/ha): 5 (Herbicidal rate of 90% or more (almost completely withered))

SMILES: Cc1nn(C)c(=O)c(-c2c(-c3ccsc3)sc3ccccc23)c1O [1-083]
- herbicidal effect on H (barnyard grass), rating 0-5 ([1]; 320 g/ha): 3 (Herbicidal rate of 40% or more and less than 70%)
- herbicidal effect on D (Chinese sprangletop), rating 0-5 ([2]; 320 g/ha): 3 (Herbicidal rate of 40% or more and less than 70%)
- herbicidal effect on E (rice flat sedge), rating 0-5 ([3]; 320 g/ha): 4 (Herbicidal rate of 70% or more and less than 90%)
- herbicidal effect rating, F: southern crabgrass [4, 31]: 0 (Herbicidal rate of 5% or less (almost no effect))
- herbicidal effect rating, G: green foxtail [5, 31]: 0 (Herbicidal rate of 5% or less (almost no effect))
- herbicidal effect rating, H: barnyard grass [6, 31]: 0 (Herbicidal rate of 5% or less (almost no effect))
- herbicidal effect rating, I: wild oat [7, 31]: 2 (Herbicidal rate of 20% or more and less than 40%)
- herbicidal effect rating, J: blackgrass [8, 31]: 0 (Herbicidal rate of 5% or less (almost no effect))
- herbicidal effect rating, K: Italian ryegrass [9, 31]: 3 (Herbicidal rate of 40% or more and less than 70%)
- herbicidal effect rating, L: windgrass [10, 31]: 0 (Herbicidal rate of 5% or less (almost no effect))
- herbicidal effect rating, M: velvetleaf [11, 31]: 0 (Herbicidal rate of 5% or less (almost no effect))
- herbicidal effect rating, N: redroot pigweed [12, 31]: 0 (Herbicidal rate of 5% or less (almost no effect))
- herbicidal effect rating, O: lambsquarters [13, 31]: 0 (Herbicidal rate of 5% or less (almost no effect))
- herbicidal effect rating, P: chickweed [14, 31]: 5 (Herbicidal rate of 90% or more (almost completely withered))
- herbicidal effect rating, Q: false cleavers [15, 31]: 3 (Herbicidal rate of 40% or more and less than 70%)
- herbicidal effect rating, R: persian speedwell [16, 31]: 5 (Herbicidal rate of 90% or more (almost completely withered))
- herbicidal effect grade, F: southern crabgrass ([17]; 320 g/ha): 2 (Herbicidal rate of 20% or more and less than 40%)
- herbicidal effect grade, G: green foxtail ([18]; 320 g/ha): 0 (Herbicidal rate of 5% or less (almost no effect))
- herbicidal effect grade, H: barnyard grass ([19]; 320 g/ha): 0 (Herbicidal rate of 5% or less (almost no effect))
- herbicidal effect grade, I: wild oat ([20]; 320 g/ha): 3 (Herbicidal rate of 40% or more and less than 70%)
- herbicidal effect grade, J: blackgrass ([21]; 320 g/ha): 1 (Herbicidal rate of 5% or more and less than 20%)
- herbicidal effect grade, K: Italian ryegrass ([22]; 320 g/ha): 4 (Herbicidal rate of 70% or more and less than 90%)
- herbicidal effect grade, L: windgrass ([23]; 320 g/ha): 3 (Herbicidal rate of 40% or more and less than 70%)
- herbicidal effect grade, M: velvetleaf ([24]; 320 g/ha): 5 (Herbicidal rate of 90% or more (almost completely withered))
- herbicidal effect grade, N: redroot pigweed ([25]; 320 g/ha): 3 (Herbicidal rate of 40% or more and less than 70%)
- herbicidal effect grade, O: lambsquarters ([26]; 320 g/ha): 0 (Herbicidal rate of 5% or less (almost no effect))
- herbicidal effect grade, P: chickweed ([27]; 320 g/ha): 5 (Herbicidal rate of 90% or more (almost completely withered))
- herbicidal effect grade, Q: false cleavers ([28]; 320 g/ha): 4 (Herbicidal rate of 70% or more and less than 90%)
- herbicidal effect grade, R: persian speedwell ([29]; 320 g/ha): 3 (Herbicidal rate of 40% or more and less than 70%)
